Data reported in US20240148821A1, “PHARMACEUTICAL USE OF CYCLIC PEPTIDE COMPOUND” (CHUGAI SEIYAKU KABUSHIKI KAISHA, priority 2021, published 2024).
Numbered stars: 1 amine (or outer) side, 2 acyl side, 3 side chain; on linkers, the order of the positions; unused ones are H or OH. Bridge positions count the residues as written; N and C are the ends. Square brackets hold non-standard residues; d marks the D form. Peptide text beside a SMILES is read from it. * marks the point of attachment. hPhe(3-Cl-4-CF3) = N[C@@H](CCc1ccc(C(F)(F)F)c(Cl)c1)C(=O)O; hPhe(3-F,4-CF3) = N[C@@H](CCc1ccc(C(F)(F)F)c(F)c1)C(=O)O; X27 = CN([C@@H](Cc1ccc(C(F)(F)F)nc1)C(=O)[*:2])[*:1]; NMePhe(4-Me) = CN[C@@H](Cc1ccc(C)cc1)C(=O)O; NMedβ3hAla = C[C@H](CC(=O)[*:2])N(C)[*:1]; NMeGly(cPent) = CN[C@H](C(=O)O)C1CCCC1; Phe(3-I) = N[C@@H](Cc1cccc(I)c1)C(=O)O; NMeCha = CN[C@@H](CC1CCCCC1)C(=O)O; NMeGly(cPr) = CN[C@H](C(=O)O)C1CC1; NMehLeu = CN[C@@H](CCC(C)C)C(=O)O; NMeChg = CN[C@H](C(=O)O)C1CCCCC1; NMeI = CC[C@H](C)[C@H](NC)C(=O)O; hPhe = N[C@@H](CCc1ccccc1)C(=O)O; NMeD = CN[C@@H](CC(=O)O)C(=O)O; NMeL = CN[C@@H](CC(C)C)C(=O)O; NMeV = CN[C@H](C(=O)O)C(C)C; d(β3hA) = C[C@@H](N)CC(=O)O; NMeS = CN[C@@H](CO)C(=O)O; Morpholide = C1CN(*)CCO1; NMeA = CN[C@@H](C)C(=O)O; NMeAib = CNC(C)(C)C(=O)O; Piperidide = C1CCN(*)CC1; Ac5c = NC1(C(=O)O)CCCC1; Aze = O=C(O)[C@@H]1CCN1; Isopentyl = CC(C)CC*; Sar = CNCC(=O)O; Propyl = CCC*

System: Human pancreatic cancer cell line AsPC-1 (G12D mutation Kras)
Experiment: AsPC-1 cell growth inhibition (AsPC-1 CGI)
Assay type: cell-based
Details: read-out: AsPC-1 cell growth inhibition, 50% growth inhibitory concentration (IC50 value); 96 hours, CellTiter-Glo, values classified in ranges
Experimental: Test compounds were serially dilated with dimethyl sulfoxide, and 200 nL was then dispensed to a U-bottom 96-well plate using Labcyte Echo. […] The cell suspension was dispensed to a. plate containing a test compound at 100 μL per well and incubated at 37° C. in a 5% carbon dioxide gas incubator. 96 hours later, 80 μL of CellTiter-Glo (Promega) was added to each well and fluorescence was measured.

Compound	IC50 [nM]
CC[C@H](C)[C@@H]1NC(=O)[C@H](CC(C)C)N(C)C(=O)C[C@@H](C(=O)N(C)C)N(C)C(=O)[C@H]([C@@H](C)CC)N(C)C(=O)[C@H](C(C)C)NC(=O)[C@H](C)N(C)C(=O)[C@H](CCc2ccc(C(F)(F)F)c(Cl)c2)NC(=O)CN(C)C(=O)[C@H](Cc2ccc(C)cc2)N(C)C(=O)[C@@H]2CCN2C(=O)[C@H](C)N(C)C1=O [Compound 4] ([NMeL]I[NMeA][Aze][NMePhe(4-Me)][Sar][hPhe(3-Cl-4-CF3)][NMeA]V[NMeI][NMeD]-NMe2; lactam N-11)	> 500
CC[C@H](C)[C@@H]1NC(=O)[C@H](CC(C)C)N(C)C(=O)C[C@@H](C(=O)N2CCCCC2)N(C)C(=O)[C@H](C2CCCCC2)N(C)C(=O)C2(CCCC2)NC(=O)[C@H](Cc2ccc(C(F)(F)F)nc2)N(C)C(=O)[C@H](CCc2ccc(C(F)(F)F)c(Cl)c2)NC(=O)CN(C)C(=O)[C@H](CC2CCCCC2)N(C)C(=O)[C@@H]2CCN2C(=O)CN(C)C1=O [Compound 6] ([NMeL]I[Sar][Aze][NMeCha][Sar][hPhe(3-Cl-4-CF3)][X27][Ac5c][NMeChg][NMeD]-Piperidide; lactam N-11)	> 500
COC[C@@H]1NC(=O)[C@H](CC(C)C)N(C)C(=O)C[C@@H](C(=O)N2CCCCC2)N(C)C(=O)[C@H](C(C)C)N(C)C(=O)C2(CCCC2)NC(=O)[C@@H]2CCCN2C(=O)[C@H](CCc2ccc(C(F)(F)F)c(Cl)c2)NC(=O)CN(C)C(=O)[C@H](CC2CCCCC2)N(C)C(=O)[C@@H]2CCN2C(=O)[C@H](C)N(C)C1=O [Compound 7] ([NMeL]S(Me)[NMeA][Aze][NMeCha][Sar][hPhe(3-Cl-4-CF3)]P[Ac5c][NMeV][NMeD]-Piperidide; lactam N-11)	> 500
CCCOC[C@H]1C(=O)N(C)CC(=O)N[C@@H](CCc2ccc(C(F)(F)F)c(F)c2)C(=O)N2CCC[C@H]2C(=O)NC2(CCCC2)C(=O)N(C)[C@@H](C2CCCC2)C(=O)N(C)[C@H](C(=O)N2CCOCC2)CC(=O)N(C)[C@@H](CC(C)C)C(=O)N[C@@H]([C@@H](C)CC)C(=O)N(C)[C@@H](C)C(=O)N2CC[C@H]2C(=O)N1C [Compound 9] ([NMeL]I[NMeA][Aze][NMeS](Propyl)[Sar][hPhe(3-F,4-CF3)]P[Ac5c][NMeGly(cPent)][NMeD]-Morpholide; lactam N-11)	≤ 20
CC[C@H](C)[C@@H]1NC(=O)[C@H](CC(C)C)N(C)C(=O)C[C@@H](C(=O)N2CCCCC2)N(C)C(=O)[C@H](CC(C)C)NC(=O)C(C)(C)N(C)C(=O)[C@H](CCc2ccccc2)NC(=O)[C@H](Cc2cccc(I)c2)NC(=O)CN(C)C(=O)[C@H](Cc2ccc(C)cc2)N(C)C(=O)CN(C)C(=O)CN(C)C1=O [Compound 13] ([NMeL]I[Sar][Sar][NMePhe(4-Me)][Sar][Phe(3-I)][hPhe][NMeAib]L[NMeD]-Piperidide; lactam N-11)	> 500
CC[C@H](C)[C@@H]1NC(=O)[C@H](CC(C)C)N(C)C(=O)C[C@@H](C)NC(=O)[C@H](C2CC2)N(C)C(=O)C2(CCCC2)NC(=O)[C@@H]2CCCN2C(=O)[C@H](CCc2ccc(C(F)(F)F)c(Cl)c2)NC(=O)CN(C)C(=O)[C@H](CC2CCCCC2)N(C)C(=O)CN(C)C(=O)CN(C)C1=O [Compound 14] (cyclo([Ac5c][NMeGly(cPr)][d(β3hA)][NMeL]I[Sar][Sar][NMeCha][Sar][hPhe(3-Cl-4-CF3)]P))	> 500
CC[C@H](C)[C@@H]1NC(=O)[C@H](CC(C)C)N(C)C(=O)C[C@@H](C)N(C)C(=O)[C@H](CCC(C)C)N(C)C(=O)C2(CCCC2)NC(=O)[C@@H]2CCCN2C(=O)[C@H](CCc2ccc(C(F)(F)F)c(Cl)c2)NC(=O)CN(C)C(=O)[C@H](CC2CCCCC2)N(C)C(=O)CN(C)C(=O)CN(C)C1=O [Compound 22] (cyclo([Ac5c][NMehLeu][NMedβ3hAla][NMeL]I[Sar][Sar][NMeCha][Sar][hPhe(3-Cl-4-CF3)]P))	> 500
CC[C@H](C)[C@@H]1NC(=O)[C@H](CC(C)C)N(C)C(=O)C[C@@H](C(=O)N(C)C)N(C)C(=O)[C@H](C2CCCC2)N(C)C(=O)[C@H](C(C)C)NC(=O)[C@@H](C)NC(=O)[C@H](CCc2ccc(C(F)(F)F)c(Cl)c2)NC(=O)CN(C)C(=O)[C@H](CC2CCCCC2)N(C)C(=O)[C@@H]2CCN2C(=O)[C@H](C)N(C)C1=O [Compound 24] ([NMeL]I[NMeA][Aze][NMeCha][Sar][hPhe(3-Cl-4-CF3)][dA]V[NMeGly(cPent)][NMeD]-NMe2; lactam N-11)	> 500
CC[C@H](C)[C@@H]1NC(=O)[C@H](CC(C)C)N(C)C(=O)C[C@@H](C(=O)N(C)C)N(C)C(=O)[C@H]([C@@H](C)CC)N(C)C(=O)C2(CCCC2)NC(=O)[C@H](COCCC(C)C)N(C)C(=O)[C@H](CCc2ccc(C(F)(F)F)c(Cl)c2)NC(=O)CN(C)C(=O)[C@H](Cc2ccc(C)cc2)N(C)C(=O)[C@@H]2CCN2C(=O)[C@H](C)N(C)C1=O [Compound 27] ([NMeL]I[NMeA][Aze][NMePhe(4-Me)][Sar][hPhe(3-Cl-4-CF3)][NMeS](Isopentyl)[Ac5c][NMeI][NMeD]-NMe2; lactam N-11)	≤ 20
